Laboratory results reported in paper PMC13051451, “A Charge-Reversal Point Mutation Completely Depletes Flavin Chromophore from European Robin Cryptochrome 4a Protein” (The Journal of Physical Chemistry Letters, 2026).

Tests used:
[1] = biological target: T1, European robin Cryptochrome 4a (ErCry4a) (Erithacus rubecula, UniProt A0A2I4SZI9, R356E); assay: native electrospray mass spectrometry; UV-vis absorption; type: binding; conditions: co-purified FAD, noncovalent; 20 uM protein, 150 mM ammonium acetate, pH 8; no bound FAD detected (non-binder)
T1 construct: anion exchange purified; monomer with minor dimer
T1 sequence (A0A2I4SZI9 entry or part of it R356E): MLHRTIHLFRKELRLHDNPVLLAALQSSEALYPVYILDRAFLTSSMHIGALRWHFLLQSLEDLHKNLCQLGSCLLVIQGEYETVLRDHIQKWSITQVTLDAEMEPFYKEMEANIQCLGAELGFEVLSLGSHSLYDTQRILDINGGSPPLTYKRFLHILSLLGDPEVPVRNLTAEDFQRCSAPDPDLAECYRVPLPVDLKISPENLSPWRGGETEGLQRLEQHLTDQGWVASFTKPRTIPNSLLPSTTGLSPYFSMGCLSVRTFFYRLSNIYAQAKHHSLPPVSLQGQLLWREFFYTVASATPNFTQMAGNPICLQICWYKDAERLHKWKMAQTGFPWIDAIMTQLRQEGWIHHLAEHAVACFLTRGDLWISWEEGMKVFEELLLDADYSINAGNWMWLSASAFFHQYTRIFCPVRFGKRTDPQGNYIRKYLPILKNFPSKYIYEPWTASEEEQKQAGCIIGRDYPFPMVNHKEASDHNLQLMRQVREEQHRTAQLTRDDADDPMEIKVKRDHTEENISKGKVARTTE

[2] = biological target: T2, European robin Cryptochrome 4a (ErCry4a) (Erithacus rubecula, UniProt A0A2I4SZI9); assay: as above; type: binding; conditions: co-purified FAD, noncovalent; 20 uM protein, 150 mM ammonium acetate, pH 8
T2 construct: anion exchange purified; monomer with minor dimer
T2 sequence (A0A2I4SZI9 entry or part of it): as the sequence (A0A2I4SZI9 entry or part of it R356E) above, with E356R counted along it

- % of protein with FAD bound [2]: 94%
Compound: Cc1cc2nc3c(=O)[nH]c(=O)nc-3n(C[C@H](O)[C@H](O)[C@H](O)COP(=O)(O)OP(=O)(O)OC[C@H]3O[C@@H](n4cnc5c(N)ncnc54)[C@H](O)[C@@H]3O)c2cc1C [flavin adenine dinucleotide]
- native electrospray mass spectrometry; UV-vis absorption [1]: The R356E mutant is detected exclusively without FAD
